Test results as given in US7214495B2, “Screening method” (Takeda Pharmaceutical Company Limited, priority 2002, dated 2007).

Columns and labels:
Rat GPR40 = biological target: T1, Rat GPR40 (Rattus norvegicus, UniProt Q8K3T4); assay: EC50 by FLIPR calcium assay in CHO cells stably expressing rat GPR40; assay type: cell-based; details: intracellular calcium, FLIPR, stable CHO line; read-out: EC50 Rat GPR40
T1 construct: expressed in transfected cells
Description: For determination of EC50 values, the CHO cell lines in which human-, mouse- and rat-derived GPR40 was stably expressed were used. Unless otherwise indicated, these CHO cell lines were incubated in α-MEM medium (Invitrogen) supplemented with 10% fetal calf serum (Invitrogen).
On the day before assay, the cells incubated to almost confluent stage were rinsed with PBS (Invitrogen), then scraped in 0.05% trypsin-EDTA solution (Invitrogen) and recovered by centrifugal operation. The number of the cells obtained was counted and diluted so as to contain 3×10^5 cells/1 mL of the medium. The dilution was dispensed in a Black welled 96-well plate (Coster) in 100 μL/well, followed by incubation overnight in a CO2 incubator. To the thus prepared CHO cells, various test samples were added and the changes in intracellular calcium level in this case were measured using FLIPR (Molecular Device). In order to determine the changes in the intracellular calcium ion level on FLIPR, the cells were pre-treated by the following procedures.
First, for the purpose of adding a fluorescent dye Fluo-3 AM (DOJIN) to the cells or washing the cells immediately before the FLIPR assay, an assay buffer was prepared. A solution obtained by adding 20 mL of 1M HEPES (pH 7.4) (DOJIN) to 1000 mL of HBSS (Invitrogen) was prepared (hereinafter HBSS/HEPES solution), to which 10 mL of a solution mixture obtained by dissolving 710 mg of Probenecid (Sigma) in 5 mL of 1N NaOH and further adding 5 mL of HBSS/HEPES solution was added. The resulting solution was used as the assay buffer. Next, 50 μg of Fluo-3AM was dissolved in 21 μL of DMSO (Wako) and an equal volume of 20% Pulronic acid (Molecular Probes) was added to and mixed with the solution. The mixture was then added to 10.6 mL of the assay buffer supplemented with 105 μL of fetal calf serum to prepare a fluorescent dye solution. […], the medium for the CHO cells again plated in a Black welled 96-well plate was removed. Immediately thereafter, the fluorescent dye solution was dispensed in 100 μL each/well and the cells were incubated in a CO2 incubator for an hour so that the fluorescent dye was taken up into the cells. The cells after the incubation was washed with the assay buffer described above and set on FLIPR. […] After the pre-treatment above was made, the changes in intracellular calcium level after the addition of various test samples were measured on FLIPR.

[1] = system: mouse insulinoma MIN6 cells; assay: Insulin secretion from MIN6 cells with free fatty acid-BSA mixture (RIA); assay type: cell-based; details: 300 μM to 1000 μM; fatty acid-BSA 4:1; 11 mM glucose; 90 (or 60) minutes
Description: The MIN6 cells were cultured in DMEM (high glucose, Invitrogen) containing 15% FCS (Trace Scientific Ltd.), 55 μM 2-mercaptoethanol, 100 U/ml penicillin and 100 μg/ml streptomycin, unless otherwise indicated. MIN6 cells were plated in a 96-well plate in 10^5 cells/well, followed by incubation at 37° C. for 3 days in a CO2 incubator adjusted to a concentration of 5% CO2. The medium was replaced by RPMI1640 (glucose free, Invitrogen) containing 10% FCS (Trace Scientific Ltd.), 5.5 mM glucose, 100 U/ml penicillin and 100 μg/ml streptomycin, followed by incubation for further 24 hours. After the medium was removed by suction, a solution mixture of free fatty acid-bovine serum albumin (BSA) (in a molar ratio of 4:1) diluted with RPMI1640 (glucose free, Invitrogen) containing 10% FCS (Trace Scientific Ltd.), 11 mM glucose, 100 U/ml penicillin and 100 μg/ml streptomycin was added to the cells, followed by reacting in a CO2 incubator adjusted to a 5% CO2 concentration at 37° C. for 90 minutes (or 60 minutes). After the reaction, the 96-well plate was centrifuged at 1500 rpm for 5 minutes and the culture supernatant was then recovered. The amount of insulin secreted into the culture supernatant was determined by radioimmunoassay (RIA) using the rat insulin RIA system (Amersham Pharmacia).

T1 sequence (Q8K3T4 whole entry): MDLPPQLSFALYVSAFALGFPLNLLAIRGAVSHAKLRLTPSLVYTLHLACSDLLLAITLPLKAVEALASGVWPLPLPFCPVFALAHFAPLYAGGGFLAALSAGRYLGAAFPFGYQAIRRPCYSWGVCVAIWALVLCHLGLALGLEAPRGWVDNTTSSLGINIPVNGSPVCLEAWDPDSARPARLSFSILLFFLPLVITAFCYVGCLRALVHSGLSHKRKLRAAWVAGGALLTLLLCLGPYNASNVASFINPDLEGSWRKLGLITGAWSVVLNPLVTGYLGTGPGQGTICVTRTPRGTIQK

| Compound | EC50 (Rat GPR40) [µM] | insulin secretion by MIN6 cells [1] |
| --- | --- | --- |
| CC/C=C\C/C=C\C/C=C\C/C=C\C/C=C\C/C=C\CCC(=O)O [Docosahexaenoic acid (C22:6), 4Z,7Z,10Z,13Z,16Z,19Z-docosahexaenoic acid] | 13 ± 1.7 |  |
| CCCCCCCC/C=C\CCCCCCCC(=O)O [Oleic acid (C18:1), Oleic acid] | 3.4 ± 0.4 | promoted |

Continued, in another order:

| EC50 (Rat GPR40) [µM] | Compound | insulin secretion by MIN6 cells [1] |
| --- | --- | --- |
| 8 ± 0.6 | CCCCC/C=C\C/C=C\C/C=C\C/C=C\CCCC(=O)O [Arachidonic acid (C20:4), Arachidonic acid] |  |
| 5.4 ± 1.1 | CCCCC/C=C\C/C=C\C/C=C\CCCCC(=O)O [γ-Linolenic acid (C18:3), γ-Linolenic acid] | promoted |
| 4.1 ± 0.5 | CCCCC/C=C\C/C=C\CCCCCCCC(=O)O [Linoleic acid (C18:2), Linoleic acid] |  |
